Patent US8828908B2, “Herbicidally active bicyclic 1,3-dione compounds” (Syngenta Limited, priority 2007, dated 2014)

Tests used:
Format in all cases: in vivo
[1] = tested on: Alopecurus myosuroides (ALOMY); experiment: Example A pre-emergence herbicidal glasshouse test; conditions: 312 h, Rate 250 g/ha, evaluated after 13 days, 100=total damage to plant, 0=no damage to plant
Procedure: (§1) Seeds of a variety of test species were sown in standard soil in pots. After cultivation for one day (pre-emergence) or after 8 days cultivation (post-emergence) under controlled conditions in a glasshouse (at 24/16° C., day/night; 14 hours light; 65% humidity), the plants were sprayed with an aqueous spray solution derived from the formulation of the technical active ingredient in acetone/water (50:50) solution containing 0.5% Tween 20 (polyoxyethelyene sorbitan monolaurate, CAS RN 9005-64-5). The test plants were then grown in a glasshouse under controlled conditions in a glasshouse (at 24/16° C., day/night; 14 hours light; 65% humidity) and watered twice daily. After 13 days for pre and post-emergence, the test was evaluated (100=total damage to plant; 0=no damage to plant).
(§2) Alopecurus myosuroides (ALOMY), Avena fatua (AVEFA), Setaria faberi (SETFA), Echinochloa crus-galli (ECHCG), Solanum nigrum (SOLNI) and Amaranthus retroflexus (AMARE)

[2] = tested on: Amaranthus retroflexus (AMARE); experiment: Example A pre-emergence herbicidal glasshouse test; conditions: 312 h, Rate 250 g/ha, evaluated after 13 days, 100=total damage to plant, 0=no damage to plant
Procedure: as §1, §2

Avena fatua (AVEFA) [3] = experiment: Example A pre-emergence herbicidal glasshouse test; conditions: 312 h, Rate 250 g/ha, evaluated after 13 days, 100=total damage to plant, 0=no damage to plant
Procedure: as §1, §2

[4] = tested on: Echinochloa crus-galli (ECHCG); experiment: Example A pre-emergence herbicidal glasshouse test; conditions: 312 h, Rate 250 g/ha, evaluated after 13 days, 100=total damage to plant, 0=no damage to plant
Procedure: as §1, §2

Setaria faberi (SETFA) [5] = experiment: Example A pre-emergence herbicidal glasshouse test; conditions: 312 h, Rate 250 g/ha, evaluated after 13 days, 100=total damage to plant, 0=no damage to plant
Procedure: as §1, §2

[6] = tested on: Alopecurus myosuroides (ALOMY); experiment: Example A post-emergence herbicidal glasshouse test; conditions: 312 h, evaluated after 13 days, 100=total damage to plant, 0=no damage
Procedure: as §1, §2

[7] = tested on: Amaranthus retroflexus (AMARE); experiment: as above; conditions: 312 h, evaluated after 13 days, 100=total damage to plant, 0=no damage
Procedure: as §1, §2

Avena fatua (AVEFA) [8] = experiment: as above; conditions: 312 h, evaluated after 13 days, 100=total damage to plant, 0=no damage
Procedure: as §1, §2

[9] = tested on: Echinochloa crus-galli (ECHCG); experiment: as above; conditions: 312 h, evaluated after 13 days, 100=total damage to plant, 0=no damage
Procedure: as §1, §2

Setaria faberi (SETFA) [10] = experiment: as above; conditions: 312 h, evaluated after 13 days, 100=total damage to plant, 0=no damage
Procedure: as §1, §2

| SMILES | pest or weed control at 250 g/ha [1] [%] | pest or weed control at 250 g/ha [2] [%] | pest or weed control at 250 g/ha (Avena fatua (AVEFA) [3]) [%] | pest or weed control at 250 g/ha [4] [%] | pest or weed control at 250 g/ha (Setaria faberi (SETFA) [5]) [%] | pest or weed control at 250 g/ha [6] [%] | pest or weed control at 250 g/ha [7] [%] | pest or weed control at 250 g/ha (Avena fatua (AVEFA) [8]) [%] | pest or weed control at 250 g/ha [9] [%] | pest or weed control at 250 g/ha (Setaria faberi (SETFA) [10]) [%] |
| --- | --- | --- | --- | --- | --- | --- | --- | --- | --- | --- |
| Cc1ccc(-c2ccc(F)c(F)c2)cc1C1=C(O)[C@H]2CC[C@H](C2)C1=O (single isomer, unassigned) [Compound T9] | 0 | 0 | 0 | 0 | 50 | 10 | 0 | 40 | 70 | 80 |
| Cc1ccc(-c2ccccc2C)cc1C1=C(O)[C@H]2CC[C@H](C2)C1=O (single isomer, unassigned) [Compound T18] | 0 | 0 | 0 | 0 | 0 | 0 | 0 | 0 | 0 | 0 |
| Cc1cccc(-c2ccc(C)c(C3=C(O)[C@H]4CC[C@H](C4)C3=O)c2)c1 (single isomer, unassigned) [Compound T19] | 0 | 0 | 0 | 0 | 0 | 0 | 20 | 0 | 40 | 50 |
| Cc1ccc(-c2ccc(C)c(C3=C(O)[C@H]4CC[C@H](C4)C3=O)c2)cc1 (single isomer, unassigned) [Compound T20] | 10 | 0 | 0 | 40 | 0 | 20 | 0 | 0 | 60 | 50 |
| Cc1ccc(-c2ccccc2C(F)(F)F)cc1C1=C(O)[C@H]2CC[C@H](C2)C1=O (single isomer, unassigned) [Compound T21] | 0 | 0 | 0 | 0 | 0 | 0 | 0 | 0 | 0 | 20 |
| Cc1ccc(-c2cccc(C(F)(F)F)c2)cc1C1=C(O)[C@H]2CC[C@H](C2)C1=O (single isomer, unassigned) [Compound T22] | 0 | 0 | 0 | 20 | 10 | 0 | 0 | 0 | 20 | 50 |
| Cc1ccc(-c2ccc(C(F)(F)F)cc2)cc1C1=C(O)[C@H]2CC[C@H](C2)C1=O (single isomer, unassigned) [Compound T23] | 50 | 0 | 0 | 90 | 100 | 60 | 0 | 60 | 90 | 100 |
| CCc1ccc(-c2cccc(Cl)c2)cc1C1=C(O)[C@H]2CC[C@H](C2)C1=O (single isomer, unassigned) [Compound T38] | 0 | 0 | 0 | 60 | 0 | 20 | 0 | 0 | 70 | 40 |
